Where “and” joins values, the source holds several entries; their conditions need not be identical. Equal values may be shown once. Read-outs that look alike come from different tables or passages of the source. Marks after values point to notes of the source that are not given here.

The subject of test [1] is B48: pentamidine, diminazene and melaminophenyl arsenical resistant T. brucei line. Put plainly: microbe, parasite or virus in culture. The following applies: for EC50: Trypanosoma brucei; for RF (B48): resistance factor vs Lister 427WT. It counts as cell-based, Trypanosoma brucei brucei.
For test [2], the system named is ISMR1: isometamidium-resistant T. brucei cell line. Put plainly: microbe, parasite or virus in culture. It counts as cell-based, Trypanosoma brucei brucei. The following applies: for EC50: Trypanosoma brucei; for RF (ISMR1): resistance factor vs Lister 427WT. The procedure: (§1) Drug susceptibility tests with Lister 427WT, TbAT1-KO[48], B48[26] and ISMR1[27] were performed using an assay based on the viability indicator dye resazurin in 96-well plates, each well containing 2 × 10^4 cells. The plates were incubated for 48 h with a doubling dilution series of the test compounds in HMI-9/fetal bovine serum at 37 °C/5% CO2 (23 dilutions starting at 100 µM, except for the pentamidine control (50 µM)), after which resazurin (20 µL of 125 µg mL^−1 resazurin sodium salt solution was added to each well (containing 200 µL of cells and test compound)) was added to each well and the plates incubated for another 24 h. Fluorescence was determined using a FLUOstar Optima (BMG Labtech, Durham, NC) and the results fitted to a sigmoid curve with variable slope using Prism 5.0 or Prism 7.04 (GraphPad, San Diego, CA).

The subject of test [3] is TbAT1-KO: T. brucei cell line lacking the TbAT1(P2) transporter gene. Put plainly: microbe, parasite or virus in culture. It counts as cell-based, Trypanosoma brucei brucei. The following applies: for EC50: Trypanosoma brucei; for RF (TbAT1-KO): resistance factor: ratio of EC50 of resistant and Lister 427WT. The procedure:
as §1

The subject of test [4] is T. b. brucei Lister 427WT. Put plainly: Drug susceptibility test (resazurin), Lister 427WT. Type of test: cell-based, Trypanosoma brucei brucei. The note with it: Trypanosoma brucei. The procedure:
as §1
In general terms: The colour change of resazurin is a common sign of viable cells or microbes.

Test [5] has as its system T. b. brucei AnTAR1.1 PPYRE9. Put plainly: Mouse model of stage 2 HAT (BLI, parasitaemia, SL-RNA qPCR). It counts as in vivo. The note with it: for BLI of the head region, RLU data: individual animals; for RLU data, individual mice: Melarsoprol. The procedure: […] Treatment was initiated at 21 dpi. […] Mice were injected i.p. with […] of D-luciferin and anaesthetised using isoflurane. The luminescent signal was acquired from both the dorsal and ventral side of the animals. […] Animals subjected to the different treatment schemes (from 4 wpi) were additionally imaged over a 5 min exposure time for enhanced sensitivity. […] Tissues were weighed and RNA was extracted using the RNeasy Plus Mini Kit (Qiagen) according to the manufacturer’s recommendations. […] A list of primers used is provided in the Supplementary Methods section of the Supplementary Information. BLI images from the IVIS Spectrum In Vivo Imaging System (Perkin Elmer) were analysed using LivingImage v4.3.1. SoftWoRx suite 2.0 for microscopy (image deconvolution), then processing using the Fiji software.

The target of test [6] is Lister 427WT T. b. brucei. Put plainly: Adenosine deaminase susceptibility (drug sensitivity with/without 2 µM deoxycoformycin). It counts as cell-based, Trypanosoma brucei brucei. The procedure:
as §1, with “CA). […]” for “CA).”
Adenosine deaminase susceptibility
in the presence or absence of 2 µM 2’-deoxycoformycin. […]

For another test, the system named is T. b. brucei Squib 427. Put plainly: Mouse model of acute HAT. The following applies: Suramin 10 mg/kg sid IP. The procedure: Drinking water and food were available ad libitum throughout the experiment. […] The reference drug suramin was formulated in phospahte-buffered saline (PBS) at 2.5 mg mL^−1 and administered s.i.d. i.p. for 5 days at 10 mg kg^−1 (n = 3). All treatments were initiated 30 min prior to the i.p. infection. […] Parasitaemia was determined by microscopic evaluation of tail vein blood samples at 4, 7, 10, 14 and 21 dpi (pre-set endpoint). As a test of cure, blood samples (250 µL) were collected from treated mice at 21 dpi and were sub-inoculated i.p. in naive Swiss mice (n = 3), followed by monitoring of parasitaemia as follow-up.

[7] abbreviates: mean and SEM, n = 3, read-out: B48 EC50.
The mark [8] stands for this setting: source data, read-out: B48 EC50, AVG.
[9] abbreviates: mean and SEM, n = 3, read-out: ISMR1 EC50.
The mark [10] stands for this setting: source data, read-out: ISMR1 EC50, AVG.
Setting [11] is: read-out: TbAT1-KO EC50, AVG, source data.
Where [12] appears, read: read-out: TbAT1-KO EC50, mean and SEM, n = 3.
[13] abbreviates: source data, read-out: s427 EC50, AVG.
The mark [14] stands for this setting: DCF +, single replicate, read-out: EC50.
Setting [15] is: DCF -, single replicate, read-out: EC50.
Where [16] appears, read: Trypanosoma brucei, DCF +, average of replicates, read-out: EC50 AVG.
[17] abbreviates: Trypanosoma brucei, DCF +, read-out: EC50 Reported value.
Where [18] appears, read: Trypanosoma brucei, DCF -, average of replicates, read-out: EC50 AVG.
Setting [19] is: Trypanosoma brucei, DCF -, read-out: EC50 Reported value.
The mark [20] stands for this setting: mean and SEM, n = 3, read-out: Lister 427 EC50.

With `CC[n+]1c(-c2ccccc2)c2cc(N/N=N/c3cccc(C(=N)N)c3)ccc2c2ccc(N)cc21` [Isometamidium, reference compound], the EC50 (in general, the concentration that produces a half-maximal response) in test [1] (setting [7]) was determined as 0.56 ± 0.13 µM; in test [1] (setting [8]), 0.514 µM; in test [2] (setting [9]), 3.1 ± 0.5 µM; in test [2] (setting [10]), 5.05 µM; in test [3] (setting [11]), 0.736 µM; in test [3] (setting [12]), 0.75 ± 0.14 µM. Further, the EC50 in test [4] (read-out: Lister 427 EC50, mean and SEM, n = 3) amounted to 0.65 ± 0.085 µM; in test [4] (setting [13]), 0.758 µM. For the same compound, in test [1], the “RF (B48)” value came out at 0.85. Further, the “RF (ISMR1)” value in test [2] is recorded as 4.8***. The “RF (TbAT1-KO)” value in test [3] amounted to 1.2.
In the case of `Nc1nc(N)nc(Nc2ccc([As]3SCC(CO)S3)cc2)n1` (stereo not shown) [Melarsoprol, reference compound], the “BLI of the head region, RLU data” value in test [5] (3 wpi (start of treatment, 21 dpi)) was 20700000 RLU and 53700000 RLU; in test [5] (4 wpi), 96900 RLU and 114000 RLU; in test [5] (5 wpi), 83900 RLU and 96500 RLU; in test [5] (6 wpi) it was 85000 RLU and 111000 RLU; in test [5] (7 wpi), 90100 RLU and 74800 RLU; in test [5] (8 wpi), 81700 RLU and 77100 RLU. Further, the “BLI of the head region, RLU data” value in test [5] (9 wpi) was 73000 RLU and 85000 RLU. The “RLU data, individual mice” value in test [5] (3 wpi) was 133100000 RLU and 14890000 RLU; in test [5] (4 wpi), 121700 RLU and 135100 RLU; in test [5] (5 wpi), 112200 RLU and 109500 RLU; in test [5] (6 wpi), 106700 RLU and 93980 RLU; in test [5] (7 wpi), 99910 RLU and 79400 RLU; in test [5] (8 wpi), 117400 RLU and 101400 RLU. Besides, the “RLU data, individual mice” value was 93050 RLU and 80330 RLU in test [5] (9 wpi); 77170 RLU and 73440 RLU in test [5] (11 wpi); 62170 RLU and 64300 RLU in test [5] (12 wpi); 67840 RLU and 67090 RLU in test [5] (14 wpi). Also, in test [5] (tissues collected at 121 dpi), the “parasite burdens in brain, spleen and fat by SL-RNA qPCR” value is “complete absence of parasite burdens”. Besides, the “luminescent signal in the head region” value in test [5] (to levels similar to a non-infected control mouse) was “rapid decline of the signal”.
Consider `Nc1ncnc2c1c(Br)cn2[C@@H]1O[C@H](CO)C[C@H]1O` [FH7429-up (10)], for which the EC50 in test [6] (DCF +, average of replicates, read-out: EC50 AVG) is 0.0019 µM; in test [6] (DCF +, read-out: EC50 Reported value), 0.0019 ± 0.0002 µM; in test [6] (setting [14]), 0.00201 µM and 0.00218 µM and 0.00152 µM; in test [6] (DCF -, average of replicates, read-out: EC50 AVG), 0.00202 µM; in test [6] (DCF -, read-out: EC50 Reported value), 0.002 ± 0.0001 µM; in test [6] (setting [15]) it was 0.0019 µM and 0.00186 µM and 0.0023 µM.
For the compound `Nc1ncnc2c1ccn2[C@@H]1O[C@H](CO)[C@@H](O)[C@H]1O` [Tubercidin (6)], the EC50 is 0.173 µM and 0.283 µM and 0.47 µM in test [6] (setting [14]); 0.227 µM and 0.25 µM in test [6] (setting [15]); 0.309 µM in test [6] (setting [16]); 0.31 ± 0.07 µM in test [6] (setting [17]); 0.223 µM in test [6] (setting [18]); 0.22 ± 0.01 µM in test [6] (setting [19]). The EC50 in test [6] (Trypanosoma brucei, DCF -, single replicate, read-out: EC50) worked out at 0.194 µM.
Consider `N=C(N)c1ccc(/N=N/Nc2ccc(C(=N)N)cc2)cc1` [Diminazene, reference compound], for which the EC50 in test [1] (setting [7]) is 7.2 ± 1.6 µM; in test [1] (setting [8]), 7.15 µM; in test [2] (setting [9]) it was 2.9 ± 0.4 µM; in test [2] (setting [10]) it was 2.92 µM; in test [3] (setting [11]) it was 4.47 µM; in test [3] (setting [12]), 4.5 ± 0.9 µM. In addition, the EC50 in test [4] (setting [20]) stood at 0.42 ± 0.064 µM; in test [4] (setting [13]), 0.423 µM. Also, the “RF (B48)” value in test [1] is on record as 16.9***. The “RF (ISMR1)” value in test [2] is recorded as 6.9***. In test [3], the “RF (TbAT1-KO)” value is 10.6***.
Regarding `N=C(N)c1ccc(OCCCCCOc2ccc(C(=N)N)cc2)cc1` [Pentamidine, reference compound], the EC50 stood at 0.99 ± 0.16 µM in test [1] (setting [7]); 0.877 µM in test [1] (setting [8]); 0.14 ± 0.04 µM in test [2] (setting [9]); 0.138 µM in test [2] (setting [10]); 0.018 ± 0.002 µM in test [3] (setting [12]); 0.011 ± 0.001 µM in test [4] (setting [20]). For the same compound, in test [4] (setting [13]), the EC50 was determined as 0.00993 µM. In addition, the “RF (B48)” value in test [1] is 94.6***. Moreover, the “RF (ISMR1)” value in test [2] is 13.8**. Moreover, the “RF (TbAT1-KO)” value in test [3] is reported as 1.8**.
As to `Cc1ccc(C(=O)Nc2ccc(S(=O)(=O)O)c3cc(S(=O)(=O)O)cc(S(=O)(=O)O)c23)cc1NC(=O)c1cccc(NC(=O)Nc2cccc(C(=O)Nc3cc(C(=O)Nc4ccc(S(=O)(=O)O)c5cc(S(=O)(=O)O)cc(S(=O)(=O)O)c45)ccc3C)c2)c1` [suramin, reference compound], the “parasitaemia, individual mice” value in the test with T. b. brucei Squib 427 (4 dpi), with T. b. brucei Squib 427 (7 dpi), in the test with T. b. brucei Squib 427 (10 dpi), in the test on T. b. brucei Squib 427 (14 dpi) and in the test with T. b. brucei Squib 427 (21 dpi) was 0 each time.
Consider `Nc1ncnc2c1ncn2[C@@H]1O[C@H](CO)C[C@H]1O` [Cordycepin (3)], for which the EC50 in test [6] (setting [14]) is 0.00551 µM and 0.00122 µM and 0.00417 µM; in test [6] (setting [15]), 0.169 µM and 0.509 µM and 0.634 µM; in test [6] (setting [16]) it was 0.00363 µM; in test [6] (setting [17]), 0.0036 ± 0.001 µM; in test [6] (setting [18]) it was 0.437 µM; in test [6] (setting [19]), 0.44 ± 0.11 µM.
Regarding `Nc1ncnc2c1c(-c1ccccn1)cn2[C@@H]1O[C@H](CO)[C@@H](O)[C@H]1O` [Compound 7], the half-maximal effective concentration (EC50) in test [1] (setting [8]) was determined as 0.265 µM; in test [2] (setting [10]) it was 0.433 µM; in test [3] (setting [11]), 0.404 µM; in test [4] (setting [13]) it was 0.17 µM.

For the origin of these results see article PMC6895180 (Nature Communications, 2019).
